Test results from US20250000868A1, “USE OF ADENOSINE A2B RECEPTOR AS TARGET IN DRUGS FOR PREVENTION AND/OR TREATMENT OF PRURITUS” (The Fourth Affiliated Hospital, ZJU, priority 2023, published 2025).
“Also recorded” adds a separate entry of the source.

Key:
adenosine A2B receptor [1] = biological target: T1, adenosine A2B receptor (Mus musculus, UniProt Q60614); assay: Histamine-induced scratching behavioral experiment; type: in vivo; conditions: for number of histamine-induced scratches: within 30 min before histamine 250 μg/50 μL s.c. neck, scratches recorded within 30 min
T1 construct: from tissue; host or cells: living mouse; intrathecal dosing, receptor expressed in dorsal root ganglion neurons
T1 sequence (Q60614 1-332): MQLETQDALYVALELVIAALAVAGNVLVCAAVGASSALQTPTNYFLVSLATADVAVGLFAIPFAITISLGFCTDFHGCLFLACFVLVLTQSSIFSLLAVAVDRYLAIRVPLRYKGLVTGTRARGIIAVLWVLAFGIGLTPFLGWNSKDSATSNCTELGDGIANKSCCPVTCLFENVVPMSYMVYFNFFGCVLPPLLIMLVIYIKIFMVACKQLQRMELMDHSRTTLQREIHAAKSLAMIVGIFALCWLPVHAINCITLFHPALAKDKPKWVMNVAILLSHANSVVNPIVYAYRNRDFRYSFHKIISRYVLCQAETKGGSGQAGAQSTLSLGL
Experimental: (§1) Refer to the prior art (Jang et al., 2015) for scratching behavior. The specific operation method was as follows: each mouse neck hair was shaved two days before the experiment, and the mouse was housed in a transparent organic plastic chamber to receive acclimatization training for two consecutive days, at least 1 h a day. Adjacent transparent plastic chambers were separated by a piece of white paper to eliminate mutual interference between mice. On the day of the experiment, histamine (250 μg/50 μL) was subcutaneously injected into the mouse neck and the mice were immediately placed in the transparent plastic chamber to record scratching behaviors within 30 min using a camera. One effective scratch was defined as follows: a mouse lifted its hind leg to scratch the skin at the […] injection site and put the hind leg down, and despite the number of scratches in the interval between lifting the hind leg and putting it down, an effective scratching behavior was considered. To evaluate the antipruritic effect of PSB-603, the mice received an intrathecal injection of PSB-603 (the administration dose was 10 μL, and the dosing concentration was 1 or 10 μM) within 30 min before histamine injection.
(§2) Using a pharmacological method, the adenosine A2B receptor activity is blocked by intrathecal injection of selective adenosine A2B receptor antagonist PSB-603. […] Moreover, alleviating the effect of PSB-603 on scratch is related to the dose. […] Therefore, inhibition of the adenosine A2B receptor is an effective way to treat pruritus.

adenosine A2B receptor [2] = biological target: T1, adenosine A2B receptor; assay: Chloroquine-induced scratching behavioral experiment; type: in vivo; conditions: for number of chloroquine-induced scratches: within 30 min before chloroquine 200 μg/50 μL s.c. neck, scratches recorded within 30 min
Experimental: as §1, with “the experiment, chloroquine (200 μg/50 μL)” for “the experiment, histamine (250 μg/50 μL)”, “concentration was 1, 10 or 20” for “concentration was 1 or 10”, “10 or 20 μM) within” for “1 or 10 μM) within”, “min before chloroquine injection.” for “min before histamine injection.”
as §2

[3] = PSB-603 intrathecal 10 μL at 10 μM

SMILES: CCCn1c(=O)[nH]c2nc(-c3ccc(S(=O)(=O)N4CCN(c5ccc(Cl)cc5)CC4)cc3)[nH]c2c1=O [PSB-603]
- number of histamine-induced scratches (adenosine A2B receptor [1]; [3]): reduces the number of histamine-induced scratches
- number of histamine-induced scratches (adenosine A2B receptor [1]; PSB-603 intrathecal 10 μL at dose of 1 μM): the number of animal scratches cannot be reduced
- histamine-induced scratching behaviors, overall effect (adenosine A2B receptor [1]; intrathecal injection of PSB-603 in advance, 1 or 10 μM, FIG. 3C): dose-dependent inhibition; also recorded: can effectively prevent histamine-induced scratching behaviors
- number of chloroquine-induced scratches (adenosine A2B receptor [2]; [3]): reduces the number of chloroquine-induced scratches
- number of chloroquine-induced scratches (adenosine A2B receptor [2]; PSB-603 intrathecal 10 μL at 20 μM): reduces the number of chloroquine-induced scratches
- chloroquine-induced scratching behaviors, overall effect (adenosine A2B receptor [2]; intrathecal injection of PSB-603 in advance, 1, 10 or 20 μM, FIG. 4): dose-dependent inhibition; also recorded: can effectively prevent chloroquine-induced scratching behaviors
